Test results published in PMC4052313, “A New Lyngbyatoxin from the Hawaiian Cyanobacterium Moorea producens” (Marine Drugs, 2014).
Read-outs that look alike come from different tables or passages of the source.

Key:
PKCδ-C1B peptide [1] = target: T1, PKCδ-C1B peptide (Mus musculus, UniProt P28867); details: read-out: Ki for binding to PKCδ-C1B; cited from earlier work
T1 construct: made in house; host or cells: chemical peptide synthesis (no expression host)

[2] = Cytotoxicity assay toward L1210 leukemia cells; type: cell-based; details: mouse
Protocol: The cytotoxic activities of compounds 1 and 2 were tested toward L1210 mouse leukemia cells. The detailed methods were reported previously. Differences with the reported methods were (a) samples were dissolved with methanol; and (b) the methanol dissolved samples were applied onto each well and air-dried before the addition of L1210 cells.

[3] = test system: shrimp Palaemon paucidens; test: Crustacean lethality test, injection into abdominal cavity of shrimp; type: in vivo; details: for LD100 (lethal dose 100%): injection into abdominal cavity, monitored for 4 h
Protocol: The shrimp Palaemon paucidens (average weight, 0.5 g) was used for the crustacean lethality test. Tested samples were suspended with 1% Tween 20 (polyoxyethylene (20) sorbitan monolaurate). Two micro liter of each sample suspension was injected into the abdominal cavity of the shrimp (n = 3–5). The shrimp were monitored every 30 min for 4 h. Through the lethality tests, the lethal dose 100% values (LD100) were determined. One percent Tween 20 without sample was used as reference. LD100 was defined as weight of sample per unit weight of crustacean.

PKCδ-C1B peptide [4] = target: T1, PKCδ-C1B peptide; test: Competition binding assay with [3H]PDBu using synthetic PKCδ-C1B peptide
Protocol: The binding of [^3H]PDBu to the PKCδ-C1B peptide was evaluated by the procedure of Sharkey and Blumberg with modifications as reported previously using 50 mM tris-maleate buffer (pH 7.4 at 4 °C), 13.8 nM PKCδ-C1B peptide, 20 nM [^3H]PDBu (18.7 Ci/mmol, Perkin-Elmer Life Sciences), 50 μg/mL 1,2-dioleoyl-sn-glycero-3-phospho-L-serine (Sigma, St. Louis, MO, USA), 3 mg/mL bovine γ-globulin (Sigma, St. Louis, MO, USA), and various concentrations of inhibitors. The concentration of the properly folded PKCδ-C1B peptide was estimated to be about 3 nM on the basis of Bmax values of Scatchard analyses reported previously. Binding affinity was evaluated based on the concentration required to cause 50% inhibition of the specific binding of [^3H]PDBu, the IC50, which was calculated with Microsoft Excel. The inhibition constant, Ki, was calculated by the method of Sharkey and Blumberg.

HeLa cells = details: read-out: IC50 (cytotoxic effects); cited from earlier work
ACC-MESO-1 cells = details: read-out: IC50 (cytotoxic effects); cited from earlier work

T1 sequence (P28867 231-281 limits assumed): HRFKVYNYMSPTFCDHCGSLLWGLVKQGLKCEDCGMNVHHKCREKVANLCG

Compound: CO[C@@H](CC[C@H](C)[C@H]1O[C@@]23C[C@H](OC(=O)C[C@H]([C@@H](C)O)OC(=O)C[C@](O)(O2)[C@H](C)CC3(C)C)[C@@H]1C)c1cc(O)ccc1Br [ATX, Aplysiatoxin]
- Ki (PKCδ-C1B peptide [1]): 0.00041 µM

Compound: CO[C@@H](CC[C@H](C)[C@H]1O[C@@]23C[C@H](OC(=O)C[C@H]([C@@H](C)O)OC(=O)C[C@](O)(O2)[C@H](C)CC3(C)C)[C@@H]1C)c1cccc(O)c1 [DATX, debromoaplysiatoxin]
- Ki (PKCδ-C1B peptide [1]): 0.0002 µM

Compound: C=C[C@@](C)(CCC=C(C)C)c1ccc2c3c(c[nH]c13)C[C@@H](CO)NC(=O)[C@@H](C(C)C)N2C [compound 1, 12-Epi-lyngbyatoxin A]
- IC50 [2]: 20.4 µM
- LD100 (lethal dose 100%) [3]: 7.5 mg/kg
- Dose causing paralysis ([3]; injection, dose below the lethal dose): 0.9 mg/kg
- Ki (PKCδ-C1B peptide [4]): 0.017 µM
- Times lower binding affinity for PKC compared to lyngbyatoxin A (2) (PKCδ-C1B peptide [4]; PKCδ-C1B peptide, relative to compound 2): more than 100 times

Compound: C=C[C@@](C)(CCC=C(C)C)c1ccc2c3c(c[nH]c13)C[C@@H](CO)NC(=O)[C@H](C(C)C)N2C [compound 2, Lyngbyatoxin A]
- IC50 [2]: 8.1 µM
- Paralysis at dose less than the lethal amount ([3]; injection): Paralysis was not observed
- LD100 (lethal dose 100%) [3]: 5 mg/kg
- Ki (PKCδ-C1B peptide [4]): 0.00011 µM
- IC50 (HeLa cells): 35 µM
- IC50 (ACC-MESO-1 cells): 11 µM
